Results from article PMC8112869, “Therapeutic inhibition of keratinocyte TRPV3 sensory channel by local anesthetic dyclonine” (eLife, 2021).

Experiments:
Format in all cases: cell-based
[1] = target: T1, TRPV1 (Rattus norvegicus, UniProt O35433); assay: Whole-cell recording of capsaicin-activated TRPV1 in HEK 293T cells
T1 construct: expressed in transfected cells; host or cells: HEK 293T
Source text: (§1) The WT mouse TRPV3 (mTRPV3), human TRPV3 (hTRPV3), rat TRPV1, rat TRPV2, rat TRPM8, and mouse TRPA1 cDNAs were generously provided by Dr. Feng Qin (State University of New York at Buffalo, Buffalo, USA). The GFP-mTRPV3 WT and the mutants (mTRPV3-G573S and mTRPV3-G573C) in pcDNA4/TO vector were gifts from Dr. Michael X Zhu (The University of Texas Health Science Center at Houston, Houston, USA). The WT fTRPV3 was kindly provided by Dr. Makoto Tominaga (Department of Physiological Sciences, SOKENDAI, Okazaki, Japan). All mutations were made using the overlap-extension polymerase chain reaction method as previously described ([Tian et al., 2019]). The resulting mutations were then verified by DNA sequencing. […]
(§2) Conventional whole-cell and excised patch-clamp recording methods were used. […] For a subset of recordings, currents were amplified using an Axopatch 200B amplifier (Molecular Devices, Sunnyvale, CA) and recorded through a BNC-2090/MIO acquisition system (National Instruments, Austin, TX) using QStudio developed by Dr. Feng Qin at State University of New York at Buffalo. […] As determined by the conductance tests, the solution around a patch under study was fully controlled by the application of a flow rate of 100 μl/min or greater. […]

[2] = target: T2, TRPA1 (Mus musculus, UniProt Q8BLA8); assay: Whole-cell recording of AITC-activated TRPA1 in HEK 293T cells
T2 construct: expressed in transfected cells; host or cells: HEK 293T
T2 sequence (Q8BLA8 whole entry): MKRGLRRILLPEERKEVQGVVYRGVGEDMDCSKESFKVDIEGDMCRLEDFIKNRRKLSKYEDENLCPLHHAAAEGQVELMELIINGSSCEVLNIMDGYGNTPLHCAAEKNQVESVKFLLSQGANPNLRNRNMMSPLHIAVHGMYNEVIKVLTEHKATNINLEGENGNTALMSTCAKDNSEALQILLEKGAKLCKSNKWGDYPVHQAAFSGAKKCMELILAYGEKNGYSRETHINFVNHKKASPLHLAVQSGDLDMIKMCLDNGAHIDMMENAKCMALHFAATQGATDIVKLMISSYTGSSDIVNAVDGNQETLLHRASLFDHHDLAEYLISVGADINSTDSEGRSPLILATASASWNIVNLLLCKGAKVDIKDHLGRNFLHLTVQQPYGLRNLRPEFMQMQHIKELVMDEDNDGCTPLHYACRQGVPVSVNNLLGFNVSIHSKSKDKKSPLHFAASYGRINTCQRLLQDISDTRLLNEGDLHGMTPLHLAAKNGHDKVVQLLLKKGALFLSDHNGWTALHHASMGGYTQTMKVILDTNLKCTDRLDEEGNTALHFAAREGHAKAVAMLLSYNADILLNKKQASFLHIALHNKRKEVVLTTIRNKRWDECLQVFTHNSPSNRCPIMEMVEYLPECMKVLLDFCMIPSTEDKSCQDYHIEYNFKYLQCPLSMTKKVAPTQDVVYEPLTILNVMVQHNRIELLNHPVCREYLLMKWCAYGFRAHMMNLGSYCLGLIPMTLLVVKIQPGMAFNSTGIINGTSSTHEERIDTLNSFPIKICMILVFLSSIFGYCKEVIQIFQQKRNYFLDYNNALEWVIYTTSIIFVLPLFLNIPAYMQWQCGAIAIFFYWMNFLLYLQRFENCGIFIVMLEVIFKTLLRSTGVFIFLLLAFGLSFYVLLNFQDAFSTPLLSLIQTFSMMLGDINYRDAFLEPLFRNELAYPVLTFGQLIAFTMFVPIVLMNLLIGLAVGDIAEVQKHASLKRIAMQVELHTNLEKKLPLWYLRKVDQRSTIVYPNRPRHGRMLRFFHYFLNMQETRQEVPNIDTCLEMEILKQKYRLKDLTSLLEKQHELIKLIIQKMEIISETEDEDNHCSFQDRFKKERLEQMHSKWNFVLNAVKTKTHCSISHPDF
Source text: as §1, §2

[3] = target: T3, TRPV3 L642A (Mus musculus, UniProt Q8K424, L642A); assay: Whole-cell recording of TRPV3 mutant L642A in HEK 293T cells; conditions: 2-APB (1 mM)-evoked, –60 mV, read-out: IC50 for inhibition of TRPV3 mutant
T3 construct: expressed in transfected cells; host or cells: HEK 293T
T3 sequence (Q8K424 whole entry L642A): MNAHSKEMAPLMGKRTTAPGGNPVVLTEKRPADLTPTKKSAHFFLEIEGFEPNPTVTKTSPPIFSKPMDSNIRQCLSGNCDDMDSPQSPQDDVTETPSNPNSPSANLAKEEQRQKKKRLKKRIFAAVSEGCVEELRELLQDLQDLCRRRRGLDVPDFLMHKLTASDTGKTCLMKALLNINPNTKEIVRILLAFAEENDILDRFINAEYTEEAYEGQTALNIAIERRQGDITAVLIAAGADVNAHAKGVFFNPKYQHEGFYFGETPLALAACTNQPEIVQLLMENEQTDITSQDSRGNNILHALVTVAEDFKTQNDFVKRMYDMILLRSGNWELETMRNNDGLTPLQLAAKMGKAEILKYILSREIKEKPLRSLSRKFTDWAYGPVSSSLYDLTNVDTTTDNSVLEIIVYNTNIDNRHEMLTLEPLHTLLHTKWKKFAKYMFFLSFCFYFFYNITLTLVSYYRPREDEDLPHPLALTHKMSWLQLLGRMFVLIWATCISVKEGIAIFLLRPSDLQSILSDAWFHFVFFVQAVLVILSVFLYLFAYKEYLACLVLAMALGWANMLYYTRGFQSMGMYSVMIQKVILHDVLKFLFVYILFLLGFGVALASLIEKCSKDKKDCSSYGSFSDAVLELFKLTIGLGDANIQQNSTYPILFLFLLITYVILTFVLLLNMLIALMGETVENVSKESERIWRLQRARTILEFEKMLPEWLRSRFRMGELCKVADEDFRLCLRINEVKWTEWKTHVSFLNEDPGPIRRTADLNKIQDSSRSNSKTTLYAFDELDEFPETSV
Source text: as §1, §2

T1 sequence (O35433 whole entry): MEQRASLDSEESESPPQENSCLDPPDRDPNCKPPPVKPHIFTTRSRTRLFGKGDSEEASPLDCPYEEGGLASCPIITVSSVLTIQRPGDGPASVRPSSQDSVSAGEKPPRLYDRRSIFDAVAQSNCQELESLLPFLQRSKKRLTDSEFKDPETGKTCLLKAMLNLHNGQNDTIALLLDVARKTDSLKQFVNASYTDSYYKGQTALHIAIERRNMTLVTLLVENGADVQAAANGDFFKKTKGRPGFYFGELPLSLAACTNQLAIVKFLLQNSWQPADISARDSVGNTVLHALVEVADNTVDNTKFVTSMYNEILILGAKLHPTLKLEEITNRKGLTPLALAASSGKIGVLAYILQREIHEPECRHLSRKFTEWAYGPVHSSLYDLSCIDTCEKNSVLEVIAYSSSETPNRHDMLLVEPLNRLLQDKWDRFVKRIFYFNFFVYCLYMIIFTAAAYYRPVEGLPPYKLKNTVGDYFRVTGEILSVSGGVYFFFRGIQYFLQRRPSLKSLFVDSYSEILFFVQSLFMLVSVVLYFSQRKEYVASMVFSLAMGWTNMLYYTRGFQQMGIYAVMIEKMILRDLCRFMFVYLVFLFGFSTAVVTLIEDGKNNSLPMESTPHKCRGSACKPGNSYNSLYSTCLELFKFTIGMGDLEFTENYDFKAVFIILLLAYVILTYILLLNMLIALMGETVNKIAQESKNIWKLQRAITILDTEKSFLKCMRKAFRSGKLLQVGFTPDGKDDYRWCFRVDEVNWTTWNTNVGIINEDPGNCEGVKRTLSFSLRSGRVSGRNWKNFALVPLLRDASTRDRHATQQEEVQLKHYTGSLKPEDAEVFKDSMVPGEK

SMILES: CCCCOc1ccc(C(=O)CCN2CCCCC2)cc1 [dyclonine]
- Hill coefficient nH [1]: 2.0 ± 0.31
- reduction in current amplitude ([1]; 10 μM dyclonine, capsaicin-activated): 2% ± 1%
- Hill coefficient nH [2]: 1.3 ± 0.15
- reduction in current amplitude ([2]; 10 μM dyclonine, AITC-activated): 5% ± 1%
- IC50 [3]: 250 ± 20 nM
